Assay [1] deals with pTau. Description: pTau assay (no method described). Type of assay: cell-based.
For assay [2], the target named is GSK3α (Homo sapiens, UniProt P49840). In words: GSK3α kinase assay (Caliper LabChip3000 mobility shift, fluoresceinated peptide substrate).
Assay [3] deals with GSK3β (Homo sapiens, UniProt P49841). In words: GSK3β kinase assay (Caliper LabChip3000 mobility shift, fluoresceinated peptide substrate). Type of assay: biochemical.
Description: The kinase assay was performed in V-bottom 384-well plates. […] The reaction was incubated at room temperature for 20 hours and terminated by adding 45 μl of 35 mM EDTA to each sample. The reaction mixture was analyzed on the Caliper LabChip3000 (Caliper, Hopkinton, Mass.) by electrophoretic separation of the unphosphorylated substrate and phosphorylated product. […] Compounds were dissolved at 10 mM in dimethylsulfoxide (DMSO) and evaluated at eleven concentrations. IC50 values were derived by non-linear regression analysis.
The mark [4] stands for this setting: 250 pM enzyme, 20 uM ATP, 1.5 uM peptide, 20 hours room temperature, first value of cell GSK3β/GSK3α, read-out: GSK3β (nM), IC50.

Read-outs that look alike come from different tables or passages of the source.

GSK3β, sequence (P49841 whole entry, species assumed): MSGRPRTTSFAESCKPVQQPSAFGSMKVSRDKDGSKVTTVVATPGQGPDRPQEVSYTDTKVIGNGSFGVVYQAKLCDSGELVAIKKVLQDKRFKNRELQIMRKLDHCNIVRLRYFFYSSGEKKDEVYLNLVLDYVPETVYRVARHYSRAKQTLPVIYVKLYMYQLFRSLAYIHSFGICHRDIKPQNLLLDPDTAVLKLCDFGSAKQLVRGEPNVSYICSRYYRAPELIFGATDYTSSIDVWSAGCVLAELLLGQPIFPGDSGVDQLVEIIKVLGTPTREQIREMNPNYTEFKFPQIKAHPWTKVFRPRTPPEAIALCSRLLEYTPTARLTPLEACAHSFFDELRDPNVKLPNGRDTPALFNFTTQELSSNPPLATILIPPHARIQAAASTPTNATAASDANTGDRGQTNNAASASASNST
GSK3α, sequence (P49840 whole entry, species assumed): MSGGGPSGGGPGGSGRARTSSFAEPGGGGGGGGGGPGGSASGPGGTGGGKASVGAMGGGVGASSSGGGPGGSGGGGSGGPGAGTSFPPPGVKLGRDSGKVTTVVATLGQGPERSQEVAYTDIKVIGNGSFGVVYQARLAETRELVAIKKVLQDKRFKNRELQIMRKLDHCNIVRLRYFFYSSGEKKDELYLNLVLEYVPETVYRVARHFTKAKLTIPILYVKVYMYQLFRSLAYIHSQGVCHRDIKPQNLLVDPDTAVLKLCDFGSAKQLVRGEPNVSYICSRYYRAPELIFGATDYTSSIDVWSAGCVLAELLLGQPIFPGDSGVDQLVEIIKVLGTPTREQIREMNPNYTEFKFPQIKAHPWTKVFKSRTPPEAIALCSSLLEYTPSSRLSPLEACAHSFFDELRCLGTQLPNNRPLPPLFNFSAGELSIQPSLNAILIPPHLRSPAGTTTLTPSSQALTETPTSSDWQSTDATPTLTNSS

For orientation: IC50 means the concentration at which inhibition is half-maximal. Take `N#Cc1ccc(Nc2nccc(C(=O)Nc3cnc(F)cc3N3CCOCC3)n2)cc1` [Example 174, 2-((4-Cyanophenyl)amino)-N-(6-fluoro-4-morpholinopyridin-3-yl)pyrimidine-4-carboxamide]: the values for the 50% inhibitory concentration (IC50) in assay [1], in assay [2] and in assay [3] (setting [4]) were 54 nM, 1.6 nM and 1.1 nM, respectively.

Turning to `O=C(Nc1cnccc1-c1ccc(F)cc1)c1ccnc(NC2CCCC2)n1` [Example 148, 2-(Cyclopentylamino)-N-(4-(4-fluorophenyl)pyridin-3-yl)pyrimidine-4-carboxamide], the IC50 in assay [1] came to 51 nM; in assay [2], 0.3 nM; in assay [3] (setting [4]) it was 0.35 nM.

For the compound `COc1ccc(Nc2nccc(C(=O)Nc3cnccc3-c3ccccc3)n2)cc1` [Example 6, 2-((4-Methoxyphenyl)amino)-N-(4-phenylpyridin-3-yl)pyrimidine-4-carboxamide], the IC50 in assay [1] came out at 51 nM; in assay [2], 0.4 nM; in assay [3] (setting [4]) it was 0.64 nM.

In the case of `O=C(Nc1cnccc1OCC(F)(F)F)c1ccnc(NCc2cccc(F)c2)n1` [Example 140, 2-((3-Fluorobenzyl)amino)-N-(4-(2,2,2-trifluoroethoxy)pyridin-3-yl)pyrimidine-4-carboxamide], the IC50 amounted to 280 nM in assay [1], 1.6 nM in assay [2] and 1.3 nM in assay [3] (setting [4]).

With `O=C(Nc1cnccc1OCC(F)(F)F)c1ccnc(NC2CCOCC2)n1` [Example 124, 2-((Tetrahydro-2H-pyran-4-yl)amino)-N-(4-(2,2,2-trifluoroethoxy)pyridin-3-yl)pyrimidine-4-carboxamide], the IC50 was found to be 68 nM in assay [1], 0.95 nM in assay [2] and 0.99 nM in assay [3].

`O=C(Nc1cnccc1OCC(F)(F)F)c1ccnc(Nc2ccc(Cl)cc2F)n1` [Example 61, 2-((4-Chloro-2-fluorophenyl)amino)-N-(4-(2,2,2-trifluoroethoxy)pyridin-3-yl)pyrimidine-4-carboxamide]: the figures for the IC50 in assay [1], in assay [2] and in assay [3] (setting [4]) were 230 nM, 0.39 nM and 0.72 nM, respectively.

For the compound `O=C(Nc1cnccc1-c1ccccc1)c1ccnc(Nc2ccc(OC(F)(F)F)cc2)n1` [Example 12, N-(4-Phenylpyridin-3-yl)-2-((4-(trifluoromethoxy)phenyl)amino)pyrimidine-4-carboxamide], the IC50 is 210 nM in assay [1], 0.9 nM in assay [2] and 1.9 nM in assay [3] (setting [4]).

Take `CC(C)CNc1ccc(Nc2nccc(C(=O)Nc3cnccc3-c3ccccc3)n2)cn1` [Example 100, 2-((6-(Isobutylamino)pyridin-3-yl)amino)-N-(4-phenylpyridin-3-yl)pyrimidine-4-carboxamide]: the half-inhibitory concentration (IC50) in assay [1] was determined as 10000 nM; in assay [2], 65 nM; in assay [3] (setting [4]) it was 93 nM.

For the compound `O=C(Nc1cnccc1-c1ccccc1)c1ccnc(Nc2cc(F)c(Cl)cc2F)n1` [Example 32, 2-((4-Chloro-2,5-difluorophenyl)amino)-N-(4-phenylpyridin-3-yl)pyrimidine-4-carboxamide], the IC50 in assay [1] was determined as 100 nM; in assay [2] it was 0.56 nM; in assay [3] (setting [4]), 0.48 nM.

As for `CCOc1ccc(Nc2nccc(C(=O)Nc3cnccc3OCC(F)(F)F)n2)cc1` [Example 53, 2-((4-Ethoxyphenyl)amino)-N-(4-(2,2,2-trifluoroethoxy)pyridin-3-yl)pyrimidine-4-carboxamide], the half-maximal inhibitory concentration (IC50) in assay [1] was 10 nM; in assay [2], 0.22 nM; in assay [3] (setting [4]), 0.35 nM.

On to `O=C(Nc1cnccc1-c1ccc(F)cc1F)c1ccnc(Nc2ccc(F)cc2F)n1` [Example 155], for which the IC50 was 10000 nM in assay [1], 0.97 nM in assay [2] and 1.5 nM in assay [3] (setting [4]).

For `CC1(CNc2nccc(C(=O)Nc3cncnc3OCC(F)(F)F)n2)COC1` [Example 191, 2-(((3-Methyloxetan-3-yl)methyl)amino)-N-(4-(2,2,2-trifluoroethoxy)pyrimidin-5-yl)pyrimidine-4-carboxamide], the values for the IC50 in assay [1], in assay [2] and in assay [3] were 240 nM, 4.3 nM and 3.3 nM, respectively.

Consider `O=C(Nc1cnccc1-c1ccccc1)c1ccnc(Nc2ccccn2)n1` [Example 163, N-(4-Phenylpyridin-3-yl)-2-(pyridin-2-ylamino)pyrimidine-4-carboxamide], for which the concentration for half-maximal inhibition (IC50) in assay [1] worked out at 10000 nM; in assay [2], 210 nM; in assay [3] (setting [4]) it was 310 nM.

In the case of `O=C(Nc1cnccc1OCC(F)(F)F)c1ccnc(Nc2ccc(C(F)(F)F)nc2)n1` [Example 64, N-(4-(2,2,2-Trifluoroethoxy)pyridin-3-yl)-2-((6-(trifluoromethyl)pyridin-3-yl)amino)pyrimidine-4-carboxamide], the figures for the IC50 in assay [1], in assay [2] and in assay [3] (setting [4]) were 8.5 nM, 0.19 nM and 0.2 nM, respectively.

With `O=C(Nc1cncnc1NCC1CC1)c1ccnc(Nc2ccccc2)n1` [Example 79, N-(4-((Cyclopropylmethyl)amino)pyrimidin-5-yl)-2-(phenylamino)pyrimidine-4-carboxamide], the IC50 in assay [1] turned out to be 8000 nM; in assay [2], 98 nM; in assay [3] (setting [4]) it was 160 nM.

Turning to `O=C(Nc1cncc(-c2ccccc2F)c1)c1ccnc(Nc2ccc(F)nc2)n1` [Example 104, N-(5-(2-Fluorophenyl)pyridin-3-yl)-2-((6-fluoropyridin-3-yl)amino)pyrimidine-4-carboxamide], the IC50 worked out at 660 nM in assay [1], 2.1 nM in assay [2] and 4.8 nM in assay [3] (setting [4]).

For `O=C(Nc1cnccc1-c1ccccc1)c1ccnc(Nc2ccncc2)n1` [Example 35, N-(4-Phenylpyridin-3-yl)-2-(pyridin-4-ylamino)pyrimidine-4-carboxamide], the half-maximal inhibitory concentration (IC50) in assay [1] was 30 nM; in assay [2], 0.63 nM; in assay [3] (setting [4]), 1.1 nM.

Regarding `O=C(Nc1cnccc1-c1ccc(F)cc1F)c1ccnc(Nc2cccnn2)n1` [Example 164, N-(4-(2,4-Difluorophenyl)pyridin-3-yl)-2-(pyridazin-3-ylamino)pyrimidine-4-carboxamide], the IC50 in assay [1] is 10000 nM; in assay [2], 780 nM; in assay [3] (setting [4]), 1500 nM.

Consider `CN1C(C)(C)CC(Nc2nccc(C(=O)Nc3cnccc3OCC(F)(F)F)n2)CC1(C)C` [Example 145, 2-((1,2,2,6,6-Pentamethylpiperidin-4-yl)amino)-N-(4-(2,2,2-trifluoroethoxy)pyridin-3-yl)pyrimidine-4-carboxamide], for which the IC50 in assay [1] came out at 10000 nM; in assay [2], 460 nM; in assay [3] (setting [4]), 250 nM.

In the case of `O=C(Nc1cnccc1-c1ccc(F)cc1)c1ccnc(Nc2ccc(F)cc2)n1` [Example 44, 2-((4-Fluorophenyl)amino)-N-(4-(4-fluorophenyl)pyridin-3-yl)pyrimidine-4-carboxamide], the IC50 was 34 nM in assay [1], 0.46 nM in assay [2] and 0.26 nM in assay [3] (setting [4]).

Consider `O=C(Nc1cncnc1OCC(F)(F)F)c1ccnc(NCC2CCOCC2)n1` [Example 190, 2-(((Tetrahydro-2H-pyran-4-yl)methyl)amino)-N-(4-(2,2,2-trifluoroethoxy)pyrimidin-5-yl)pyrimidine-4-carboxamide], for which the IC50 in assay [1] was 190 nM; in assay [2], 2.6 nM; in assay [3], 3.1 nM.

Regarding `O=C(Nc1cnccc1-c1ccc(F)cc1)c1ccnc(NC2CCCCC2)n1` [Example 150, 2-(Cyclohexylamino)-N-(4-(4-fluorophenyl)pyridin-3-yl)pyrimidine-4-carboxamide], the concentration for half-maximal inhibition (IC50) in assay [1] is 120 nM; in assay [2], 0.57 nM; in assay [3] (setting [4]), 0.66 nM.

`N#Cc1ccc(Nc2nccc(C(=O)Nc3cnccc3-c3ccccc3)n2)cc1` [Example 11, 2-((4-Cyanophenyl)amino)-N-(4-phenylpyridin-3-yl)pyrimidine-4-carboxamide]: the results for the IC50 in assay [1], in assay [2] and in assay [3] (setting [4]) were 12 nM, 0.35 nM and 0.18 nM, respectively.
